We go through six molecules from patent US20240002398A1, “COMPLEX, AND USE THEREOF” (RIKEN, priority 2020, published 2024).

Series [1] concerns A549 xenograft tumors. The series can be described thus: A549 tumor bearing mice xenograft model, intratumoral administration (Example 8). Particulars: for tumor growth (tumor size): intratumoral 10 μL, 4 times on days 0, 4, 7 and 11, FIGS. 17 and 18; for survival rate: intratumoral, at and after the fourth administration, Kaplan Meier, FIG. 19.
Description: The prepared mice were randomized, divided into three groups, and treated with the prodrugs and controls. Group 1 was intratumorally injected with 10 μL of compound 9 produced in Production Example 5 as a control (n=10). Group 2 was intratumorally injected with 10 μL of doxorubicin (n=10).
Administrations were conducted 4 times in total on days 0, 4, 7, and 11 with the same doses. The tumor volumes of the mice were recorded every day based on an equation: V=W^2×L/2, where W and L represented the minor length and major length of the tumor, respectively. When the tumor reached 2,000 mm^3, the mice were sacrificed, and the survival rates were calculated using the Kaplan Meier method.
Another series deals with MCF10A. The series can be described thus: ATP assay (cytotoxicity assay), DOX-ABC and DOX. Particulars: 0.05-50 μM, 48 hours at 37° C., FIG. 16.
The test system of the next series is HeLa S3. As to the kind of experiment: ATP assay (cytotoxicity assay), DOX-ABC and DOX. Particulars: HeLa S3, 0.05-50 μM, 48 hours at 37° C., FIG. 16.
The next series relates to A549. As to the kind of experiment: ATP assay (cytotoxicity assay), DOX-ABC and DOX. Particulars: A549, 0.05-50 μM, 48 hours at 37° C., FIG. 16.
Series [2] relates to A549 xenograft tumors. The series can be described thus: A549 tumor bearing mice xenograft model, intratumoral administration (Example 9). Type of series: in vivo. Conditions: intratumoral 10 μL, 4 times on days 0, 4, 7 and 11; FIG. 20.
Series [3] can be described thus: Fluorescence spectra in water (0.2% DMSO). Type of series: physicochemical. Particulars: 2 μM in water (0.2% DMSO), FIG. 1. The source says:
The results are shown in FIG. 1 (dashed line: compound 7, solid line: control compound).

Series [4] is described as follows: Fluorescence release, HPLC analysis of mixture with glutathione. Type of series: physicochemical. Conditions: 20 μM in DMSO, GSH 1.0 eq, FIG. 8. The method, then: (§1) To a solution of coumarin-ABC (compound 7) (2×10^−5 mmol, 1.0 eq) in DMSO (1 mL, [compound 7]=20 μM) was added glutathione (GSH) (2×10^−5 mmol, 1.0 eq) or acrolein (2×10^−5 mmol, 1.0 eq). The reaction liquid was stirred and the reaction mixture was subjected to HPLC analysis at different time intervals (30 minutes, 1 hour, 2 hours, 4 hours, and 12 hours). Conditions of reversed-phase HPLC were as follows: Column, Cosmosil 5C18-AR300 (manufactured by Nacalai Tesque, Inc.) 4.6×250 mm; Mobile phase A, 0.1% TFA in H2O; Mobile phase B, 0.1% TFA in CH3CN; Gradient elution, 0-4 min at 65% B, 4-14 min at 65-95% B, 14-20 min at 95% B; Flow rate at 1 mL/min; Fluorescence detection at 360/450 nm; Amount per injection 6 μL. Results are shown in FIG. 8 (GSH) and FIG. 9 (acrolein).

Series [5] is described as follows: Fluorescence release, HPLC analysis of mixture with acrolein. Particulars: 20 μM in DMSO, acrolein 1.0 eq, FIG. 9. Type of series: physicochemical. The protocol: as §1
Series [6] deals with MCF10A (normal human mammary cells). The series can be described thus: Fluorescence release, cell-based assay, time-dependent. Conditions: 2 μM or 20 μM, real-time 30 minutes, FIGS. 6 and 7. The protocol: (§2) Fluorescence intensity was normalized for each cell line by the number of 10,000 cells. Results are shown in FIG. 6 (2 μM) and FIG. 7 (20 μM).
Series [7] concerns HeLa S3 (human cervical cancer cells). The series is described as above. Particulars: HeLa S3, 2 μM or 20 μM, real-time 30 minutes, FIGS. 6 and 7. The protocol:
as §2

In series [8] the test system is A549 (human lung adenocarcinoma cells). The description is as above. Particulars: A549, 2 μM or 20 μM, real-time 30 minutes, FIGS. 6 and 7. The protocol: as §2
Series [9] relates to MCF10A (normal human mammary cells). The series can be described thus: Fluorescence release, cell-based assay, concentration-dependent. Particulars: 2-20 μM, FIG. 3. The source says:
(§3) Fluorescence intensity was normalized for each cell line by the number of 10,000 cells.

The subject of series [10] is HeLa S3 (human cervical cancer cells). Described as above. Particulars: FIG. 5.
Source text: as §3

For series [11], the system named is A549 (human lung adenocarcinoma cells). Described as above. Particulars: FIG. 4.
Source text: as §3

Series [12] concerns A549 xenograft tumors. The series can be described thus: A549 tumor bearing mice xenograft model, intratumoral administration (Example 6). Particulars: 12 times in consecutive days, mitomycin C 1.8 mg/kg, MMC-ABC 3.1 mg/kg, FIGS. 13 and 15.
Description: For all intratumoral injections and tumor measurements, mice were anesthetized with 2% isoflurane in oxygen at a 2.5-3.0 L/min flow rate.
A549 cells were obtained from stock lines kept in liquid nitrogen. These cells were cultured in Dulbeccos's modified eagle's medium (DMEM) (manufactured by FUJIFILM Wako Pure Chemical Corporation) supplemented with 10% fetal bovine serum (FBS) (manufactured by BioWest) and 1% penicillin-streptomycin (manufactured by Gibco). The cells were then incubated at 37° C. in a 5% CO2 humidified atmosphere.
A549 xenograft tumors were established in 6-week-old female nude mice BALB/cAJc1-nu/nu by subcutaneous injection of a suspension of 2.5-6.0×10^6 cells in 100 μL of cold 50% matrigel in unnourished DMEM into the right and left shoulders, and tumor growth was monitored. The mice were kept in controlled temperature, salinity, and aeration room with sufficient food and water for 12 hours day and 12 hours night. […]
The administrations were repeated 12 times in consecutive days with the same doses. The tumor volume and body weight of the mice were recorded every day based on an equation: V=W^2×L/2, where W and L represented the minor length and major length of the tumor, respectively. When the tumor reached 2,000 mm^3, the mice were sacrificed, and the survival rates were calculated using the Kaplan Meier method. […]

Consider `COc1cccc2c1C(=O)c1c(O)c3c(c(O)c1C2=O)C[C@@](O)(C(=O)CO)C[C@@H]3O[C@H]1C[C@H](NC(=O)OCc2cc(C(C)C)c(N=[N+]=[N-])c(C(C)C)c2)[C@H](O)[C@H](C)O1` [DOX-ABC], for which the “tumor growth (tumor size)” value with A549 xenograft tumors [1] was “effective with respect to the tumor growth”. This molecule yielded a survival rate in the series with A549 xenograft tumors [1] of 100%. Besides, the “cytotoxicity (cell viability)” value with MCF10A, in the series on HeLa S3 and with A549 was “released free DOX specifically in cancer cells” each time.
In the case of `COc1ccc(CC(NC(=O)OCc2cc(C(C)C)c(N=[N+]=[N-])c(C(C)C)c2)C(=O)NC2C(O)[C@H](n3cnc4c(N(C)C)ncnc43)O[C@@H]2CO)cc1` (some centres unmarked) [PUR-ABC], the tumor growth entry in the series with A549 xenograft tumors [2] is on record as “effective with respect to the tumor growth”.
`Cc1cc(C(C)C)c(N=[N+]=[N-])c(C(C)C)c1` [compound 9, 2-azido-1,3-diisopropyl-5-methylbenzene]: the “tumor growth (tumor size)” value in the series with A549 xenograft tumors [1] is reported as “larger tumor size”.
As for `Cc1cc(=O)oc2cc(NC(=O)OCc3cc(C(C)C)c(N=[N+]=[N-])c(C(C)C)c3)ccc12` [coumarin-ABC], the fluorescence emission result in [3] was “did not emit fluorescence”. For the same molecule, the “reaction with glutathione (GSH)” value in series [4] is given as “did not react with each other”. Moreover, the “state of the compound in the mixture with GSH” value in series [4] (left for 12 hours) was “did not change”. For the same molecule, the reaction with acrolein result in series [5] was “rapidly reacted with each other”. The release of fluorescence entry in [6] is given as “only slightly observed”; in [7] it was “notably observed depending on the time”; in series [8], “notably observed depending on the time”; in series [9] (60 minutes at room temperature, no NAc-Cys (conditions 1 and 3)) it was “hardly observed”; in series [9] (pre-treated with 1 mM N-acetyl cysteine 2 hours (condition 2), 60 minutes), “hardly observed”; in series [10] (HeLa S3, 2-20 μM, 60 minutes at room temperature, no NAc-Cys (conditions 1 and 3)), “notably observed”. The release of fluorescence result is recorded as “low” in [10] (HeLa S3, pre-treated with 1 mM N-acetyl cysteine 2 hours (condition 2), 2-20 μM, 60 minutes); “notably observed” in series [11] (A549, 2-20 μM, 60 minutes at room temperature, no NAc-Cys (conditions 1 and 3)); “low” in [11] (A549, pre-treated with 1 mM N-acetyl cysteine 2 hours (condition 2), 2-20 μM, 60 minutes).
On to `COc1cccc2c1C(=O)c1c(O)c3c(c(O)c1C2=O)C[C@@](O)(C(=O)CO)C[C@@H]3O[C@H]1C[C@H](N)[C@H](O)[C@H](C)O1` [doxorubicin, reference compound], for which the “tumor growth (tumor size)” value in the series with A549 xenograft tumors [1] was “effective with respect to the tumor growth”. The survival rate entry in the series on A549 xenograft tumors [1] is reported as “suddenly decreased”. The “cytotoxicity (cell viability)” value in the series with MCF10A is “nonspecifically exhibited cytotoxicity toward normal cells and cancer cells”; in the series with HeLa S3 it was “nonspecifically exhibited cytotoxicity toward normal cells and cancer cells”; in the series with A549, “nonspecifically exhibited cytotoxicity toward normal cells and cancer cells”.
Consider `CO[C@@]12[C@H](COC(N)=O)C3=C(C(=O)C(C)=C(N)C3=O)N1C[C@@H]1N[C@@H]12` [mitomycin C], for which, in the series with A549 xenograft tumors [12], the side effect result is listed as “inflammation on the whole body”.
